{
  "source": "paper PMC3602154",
  "about": "(PLoS ONE, 2013)",
  "key": {"[1]": {"target": "A3B4 (Rattus norvegicus, UniProt P04757+P12392)", "sequence (P04757 26-499)": "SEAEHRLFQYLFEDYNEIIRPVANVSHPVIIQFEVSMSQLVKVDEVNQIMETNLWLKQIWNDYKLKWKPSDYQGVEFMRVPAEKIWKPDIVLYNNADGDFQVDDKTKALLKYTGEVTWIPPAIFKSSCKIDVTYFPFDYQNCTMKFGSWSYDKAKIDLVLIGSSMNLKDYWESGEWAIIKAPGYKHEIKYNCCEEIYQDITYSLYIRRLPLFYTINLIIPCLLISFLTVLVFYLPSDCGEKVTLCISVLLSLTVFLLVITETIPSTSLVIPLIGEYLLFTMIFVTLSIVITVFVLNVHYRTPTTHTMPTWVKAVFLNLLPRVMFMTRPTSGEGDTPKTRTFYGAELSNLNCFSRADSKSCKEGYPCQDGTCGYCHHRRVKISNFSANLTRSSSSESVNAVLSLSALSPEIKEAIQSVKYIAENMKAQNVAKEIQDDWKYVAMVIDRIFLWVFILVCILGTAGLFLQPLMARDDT", "sequence (P12392 21-495)": "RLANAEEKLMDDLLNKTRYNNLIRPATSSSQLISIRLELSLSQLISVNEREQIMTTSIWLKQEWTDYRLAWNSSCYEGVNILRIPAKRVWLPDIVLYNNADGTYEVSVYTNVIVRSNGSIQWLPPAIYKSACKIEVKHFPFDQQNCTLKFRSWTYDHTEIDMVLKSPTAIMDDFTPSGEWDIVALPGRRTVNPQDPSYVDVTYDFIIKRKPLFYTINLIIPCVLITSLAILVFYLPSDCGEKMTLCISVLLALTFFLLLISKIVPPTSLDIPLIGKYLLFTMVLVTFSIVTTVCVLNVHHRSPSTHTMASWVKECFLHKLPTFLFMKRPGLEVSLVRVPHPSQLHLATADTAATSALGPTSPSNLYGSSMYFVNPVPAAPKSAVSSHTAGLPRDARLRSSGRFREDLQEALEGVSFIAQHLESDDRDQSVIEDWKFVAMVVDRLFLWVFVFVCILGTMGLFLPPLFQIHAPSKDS", "assay": "PDSP radioligand binding, nicotinic receptor α3 ß4", "description": "(§1) [17] and http://pdsp.med.unc.edu/UNC-CH%20Protocol%20Book.pdf."}, "[2]": {"target": "CB2 (Homo sapiens, UniProt P34972)", "sequence (P34972 whole entry, species assumed)": "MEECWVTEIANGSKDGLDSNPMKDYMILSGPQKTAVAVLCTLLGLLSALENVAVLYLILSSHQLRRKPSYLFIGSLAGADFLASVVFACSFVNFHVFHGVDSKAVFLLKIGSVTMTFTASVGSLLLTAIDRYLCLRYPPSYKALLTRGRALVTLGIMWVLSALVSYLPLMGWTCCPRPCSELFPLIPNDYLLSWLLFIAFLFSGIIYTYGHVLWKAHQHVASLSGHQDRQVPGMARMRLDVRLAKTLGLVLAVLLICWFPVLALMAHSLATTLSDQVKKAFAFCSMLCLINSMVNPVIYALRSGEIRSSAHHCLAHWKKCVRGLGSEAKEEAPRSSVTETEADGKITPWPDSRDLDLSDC", "assay": "PDSP radioligand binding, cannabinoid CB-2", "description": "as §1"}, "[3]": {"target": "T1, D4 (Homo sapiens, UniProt P21917)", "T1 sequence (P21917 1-419)": "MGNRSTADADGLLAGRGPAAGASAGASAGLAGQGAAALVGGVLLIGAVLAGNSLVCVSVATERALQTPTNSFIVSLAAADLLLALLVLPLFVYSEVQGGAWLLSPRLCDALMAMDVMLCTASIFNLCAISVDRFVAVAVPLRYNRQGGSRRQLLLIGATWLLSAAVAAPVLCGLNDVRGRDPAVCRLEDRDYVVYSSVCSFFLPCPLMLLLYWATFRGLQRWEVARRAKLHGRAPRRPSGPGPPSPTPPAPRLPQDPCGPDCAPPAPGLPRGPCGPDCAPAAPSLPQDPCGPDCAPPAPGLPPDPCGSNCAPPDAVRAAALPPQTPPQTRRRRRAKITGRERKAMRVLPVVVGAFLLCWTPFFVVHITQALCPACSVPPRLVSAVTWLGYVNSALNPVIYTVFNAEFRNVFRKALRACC", "assay": "PDSP radioligand binding, dopamine receptor D4", "description": "as §1"}, "[4]": {"target": "GABAA", "assay": "PDSP radioligand binding, GABA-A", "details": "Table S1; unit inferred", "description": "as §1"}, "[5]": {"target": "Sigma2 (Homo sapiens, UniProt Q5BJF2)", "sequence (Q5BJF2 whole entry)": "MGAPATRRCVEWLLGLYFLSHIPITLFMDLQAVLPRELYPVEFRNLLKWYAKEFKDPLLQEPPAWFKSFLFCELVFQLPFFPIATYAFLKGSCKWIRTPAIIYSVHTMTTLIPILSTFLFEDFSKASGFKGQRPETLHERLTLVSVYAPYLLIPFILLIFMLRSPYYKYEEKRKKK", "assay": "PDSP radioligand binding, Sigma2", "details": "for inhibition at 10 µM: quadruplicate, read-out: Sigma2 Primary Screen inhibition of binding", "description": "as §1"}, "[6]": {"target": "SERT (serotonin transporter) (Homo sapiens, UniProt P31645)", "sequence (P31645 whole entry, species assumed)": "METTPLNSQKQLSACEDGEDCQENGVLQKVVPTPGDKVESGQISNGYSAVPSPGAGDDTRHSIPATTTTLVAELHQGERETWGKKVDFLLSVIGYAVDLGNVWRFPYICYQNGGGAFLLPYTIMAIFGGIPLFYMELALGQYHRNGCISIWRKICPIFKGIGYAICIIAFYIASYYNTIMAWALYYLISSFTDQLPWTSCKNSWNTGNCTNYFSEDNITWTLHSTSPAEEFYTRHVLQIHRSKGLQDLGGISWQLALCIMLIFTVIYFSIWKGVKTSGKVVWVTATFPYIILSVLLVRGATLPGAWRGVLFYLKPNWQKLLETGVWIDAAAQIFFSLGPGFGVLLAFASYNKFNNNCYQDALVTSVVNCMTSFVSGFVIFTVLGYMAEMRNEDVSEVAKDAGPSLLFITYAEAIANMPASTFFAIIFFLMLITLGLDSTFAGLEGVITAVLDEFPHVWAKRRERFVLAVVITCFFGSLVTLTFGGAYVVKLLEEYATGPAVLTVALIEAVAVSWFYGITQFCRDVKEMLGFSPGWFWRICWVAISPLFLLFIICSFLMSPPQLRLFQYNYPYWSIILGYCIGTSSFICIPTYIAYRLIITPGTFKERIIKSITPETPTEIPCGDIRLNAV", "assay": "biochemical", "format": "binding", "details": "for Ki: Table 2", "description": "as §1"}},
  "data": [
    {"smiles": "CCNC1(c2cccc(OC)c2)CCCCC1=O", "note": "(racemic) [Methoxetamine, (RS)-2-(ethylamino)-2-(3-methoxyphenyl)cyclohexanone]", "values": [
      {"measurement": "Ki", "setting": "[1]", "value": "> 10", "unit": "µM"},
      {"measurement": "Ki", "setting": "[2]", "value": "> 10", "unit": "µM"},
      {"measurement": "Ki", "setting": "[3]", "value": "> 10", "unit": "µM"},
      {"measurement": "Ki", "setting": "[4]", "value": "> 10", "unit": "µM"},
      {"measurement": "inhibition at 10 µM", "setting": "[5]", "value": "< 50", "unit": "%"},
      {"measurement": "Ki", "setting": "[5]; Ki Sigma 2, Table S1, unit inferred", "value": "> 10", "unit": "µM"}
    ]},
    {"smiles": "COc1cccc(C2(N3CCCCC3)CCCCC2)c1", "note": "[3-MeO-PCP, 1-[1-(3-methoxyphenyl)cyclohexyl]piperidine]", "values": [
      {"measurement": "Ki", "setting": "[1]", "value": "> 10", "unit": "µM"},
      {"measurement": "Ki", "setting": "[2]", "value": "> 10", "unit": "µM"},
      {"measurement": "Ki", "setting": "[3]", "value": "> 10", "unit": "µM"},
      {"measurement": "Ki", "setting": "[4]", "value": "> 10", "unit": "µM"},
      {"measurement": "Ki", "setting": "[6]", "value": 0.216, "unit": "µM"},
      {"measurement": "inhibition at 10 µM", "setting": "[5]", "value": "< 50", "unit": "%"}
    ]},
    {"smiles": "COc1ccc(C2(N3CCCCC3)CCCCC2)cc1", "note": "[4-MeO-PCP, 1-[1-(4-methoxyphenyl)cyclohexyl]piperidine]", "values": [
      {"measurement": "Ki", "setting": "[1]", "value": "> 10", "unit": "µM"},
      {"measurement": "Ki", "setting": "[2]", "value": "> 10", "unit": "µM"},
      {"measurement": "Ki", "setting": "[3]", "value": "> 10", "unit": "µM"},
      {"measurement": "Ki", "setting": "[4]", "value": "> 10", "unit": "µM"},
      {"measurement": "affinity for the serotonin transporter (SERT), in words", "setting": "[6]", "value": "submicromolar affinities"},
      {"measurement": "Ki", "setting": "[6]", "value": 0.844, "unit": "µM"}
    ]}
  ]
}
